In ChEMBL document CHEMBL2439947, “Intermolecular interaction of voriconazole analogues with model membrane by DSC and NMR, and their antifungal activity using NMR based metabolic profiling” (2013):
In brackets after ≈: the same amount, converted by molar mass. Activity calls are given as the source filed them. The calls are words filed in the database; no cut-off is given here.

Legend:
Lipid bilayer [1] = experiment: Binding affinity to DPPC liposomes assessed as change in pre-transition temperature at 1:2 drug to DPPC liposome molar ratio by differential scanning calorimetric analysis
Candida albicans [2] = experiment: Antifungal activity against Candida albicans ATCC 10231 assessed as acetate level after 18 hrs by [1H] NMR spectroscopic analysis; format: functional
Lipid bilayer [3] = experiment: Binding affinity to DPPC liposomes assessed as melting temperature at 1:2 drug to DPPC liposome molar ratio by differential scanning calorimetric analysis
Candida albicans [4] = experiment: Antifungal activity against Candida albicans ATCC 10231 assessed as acetate level after 24 hrs by [1H] NMR spectroscopic analysis; format: functional
Candida albicans [5] = experiment: Antifungal activity against Candida albicans ATCC 10231 assessed as ethanol level after 32 hrs by [1H] NMR spectroscopic analysis; format: functional
Candida albicans [6] = experiment: Antifungal activity against Candida albicans ATCC 10231 after 24 hrs by broth microdilution method; format: functional; conditions: ATCC 10231, 24 h
Lipid bilayer [7] = experiment: Binding affinity to DPPC liposomes assessed as melting temperature at 1:10 drug to DPPC liposome molar ratio by differential scanning calorimetric analysis
Lipid bilayer [8] = experiment: Binding affinity to DPPC liposomes assessed as change in pre-transition temperature at 1:5 drug to DPPC liposome molar ratio by differential scanning calorimetric analysis
Lipid bilayer [9] = experiment: Binding affinity to DPPC liposomes assessed as change in pre-transition temperature at 1:10 drug to DPPC liposome molar ratio by differential scanning calorimetric analysis
Candida albicans [10] = experiment: Antifungal activity against Candida albicans ATCC 10231 assessed as pyruvate level after 18 hrs by [1H] NMR spectroscopic analysis; format: functional
Candida albicans [11] = experiment: Antifungal activity against Candida albicans ATCC 10231 assessed as ethanol level after 18 hrs by [1H] NMR spectroscopic analysis; format: functional
Lipid bilayer [12] = experiment: Binding affinity to DPPC liposomes by 2D-NOESY spectroscopic analysis
Lipid bilayer [13] = experiment: Binding affinity to DPPC liposomes assessed as melting temperature at 1:5 drug to DPPC liposome molar ratio by differential scanning calorimetric analysis
Candida albicans [14] = experiment: Antifungal activity against Candida albicans ATCC 10231 assessed as pyruvate level after 24 hrs by [1H] NMR spectroscopic analysis; format: functional
Candida albicans [15] = experiment: Antifungal activity against Candida albicans ATCC 10231 assessed as acetate level after 32 hrs by [1H] NMR spectroscopic analysis; format: functional
Candida albicans [16] = experiment: Antifungal activity against Candida albicans ATCC 10231 assessed as ethanol level after 24 hrs by [1H] NMR spectroscopic analysis; format: functional
Lipid bilayer [17] = experiment: Binding affinity to DPPC liposomes after 2 hrs by double reciprocal plot analysis
Candida albicans [18] = experiment: Antifungal activity against Candida albicans ATCC 10231 assessed as pyruvate level after 32 hrs by [1H] NMR spectroscopic analysis; format: functional
Lipid bilayer [19] = experiment: Binding affinity to DPPC liposomes at 1:5 drug to DPPC liposome molar ratio by [13C] NMR spectroscopic analysis
Lipid bilayer [20] = experiment: Binding affinity to DPPC liposomes at 1:2 to 1:10 drug to DPPC liposome molar ratio by [31P] NMR spectroscopic analysis
Lipid bilayer [21] = experiment: Binding affinity to DPPC liposomes at 1:5 drug to DPPC liposome molar ratio by [1H] NMR spectroscopic analysis
Candida albicans [22] = experiment: Antifungal activity against Candida albicans ATCC 10231 after 48 hrs by tube dilution method; format: functional; conditions: ATCC 10231, 48 h
Lipid bilayer [23] = experiment: Binding affinity to DPPC liposomes after 2 hrs by spectrophotometric analysis relative to control

Compound	Activity (Lipid bilayer [1])	Activity (Candida albicans [2]) [µg/mL]	Tm (Lipid bilayer [3]) [°C]	Activity (Candida albicans [4]) [µg/mL]	Activity (Candida albicans [5]) [µg/mL]	MIC (Candida albicans [6]) [µg/mL]	Tm (Lipid bilayer [7]) [°C]	Activity (Lipid bilayer [8])	Activity (Candida albicans [10]) [µg/mL]	Activity (Candida albicans [11]) [µg/mL]	Activity (Lipid bilayer [12])	Tm (Lipid bilayer [13]) [°C]	Activity (Candida albicans [14]) [µg/mL]	Activity (Candida albicans [15]) [µg/mL]	Activity (Candida albicans [16]) [µg/mL]	Kapp (Lipid bilayer [17]) [M⁻¹]	Activity (Candida albicans [18]) [µg/mL]	Activity (Lipid bilayer [19])	Activity (Lipid bilayer [20])	Activity (Lipid bilayer [21])	other results
C[C@@H](c1ncncc1F)[C@@](Cn1cncn1)(OC(=O)c1ccccc1)c1ccc(F)cc1F [VORICONAZOLE BENZOATE]	Active	6	39.5	4	4	4 (≈ 8.82 µM)	40.9	Active	4	5	Active	39.5	3	4	4	1.22	3	Active	Active	Active	T (Lipid bilayer [9]): 30.1 °C; MIC (Candida albicans [22]): 4 µg/mL (≈ 8.82 µM)
COc1ccc(C(=O)O[C@@](Cn2cncn2)(c2ccc(F)cc2F)[C@@H](C)c2ncncc2F)cc1 [VORICONAZOLE P-METHOXY BENZOATE]	Active	4	38.3	3	2	3 (≈ 6.21 µM)	39.2	Active	2	3	Active	39.1	1	2	3	1.16	1	Active	Active	Active	Activity (Lipid bilayer [9]): Active; Activity (Lipid bilayer [23]): 50%; MIC (Candida albicans [22]): 3 µg/mL (≈ 6.21 µM)
C[C@@H](c1ncncc1F)[C@@](Cn1cncn1)(OC(=O)c1ccc([N+](=O)[O-])cc1)c1ccc(F)cc1F [VORICONAZOLE P-NITRO BENZOATE]	Active	8	59.6	7	7	7 (≈ 14 µM)	60	Active	5	8	Active	60	5	6	7	0.505	5	Active	Active	Active	Activity (Lipid bilayer [9]): Active; MIC (Candida albicans [22]): 8 µg/mL (≈ 16.1 µM)
Cc1ccc(C(=O)O[C@@](Cn2cncn2)(c2ccc(F)cc2F)[C@@H](C)c2ncncc2F)cc1 [VORICONAZOLE TOLUATE]	Active	6	32.4	6	4	5 (≈ 10.7 µM)	34	Active	4	5	Active	32.6	3	5	5	0.871	3	Active	Active	Active	Activity (Lipid bilayer [9]): Active; MIC (Candida albicans [22]): 5 µg/mL (≈ 10.7 µM)
C[C@@H](c1ncncc1F)[C@](O)(Cn1cncn1)c1ccc(F)cc1F [VORICONAZOLE]	Active	3	37.4	2	1	1 (≈ 2.86 µM)	38.5	Active	1	2	Active	38.5	1	2	1	0.0543	1	Active	inactive	Active	Activity (Lipid bilayer [9]): Active; MIC (Candida albicans [22]): 1 µg/mL (≈ 2.86 µM)
